Measurements as given in the NIST ThermoML archive (doi:10.1021/je034062r).

Assay: xn = mol fraction of the nth substance listed
Conditions: for mass density: Liquid; for surface tension liquid-gas: Pendant drop shape

CC(C)=O [acetone] + Cc1ccccc1
Conditions | mass density [kg/m3] | surface tension liquid-gas [mN/m]
283.15 K, x2 = 0 | 803.2 | –
283.15 K, x2 = 0.1 | 815.1 | –
283.15 K, x2 = 0.2002 | 823.5 | –
283.15 K, x2 = 0.3002 | 832.2 | –
283.15 K, x2 = 0.3997 | 841.2 | –
283.15 K, x2 = 0.4973 | 847.6 | –
283.15 K, x2 = 0.6011 | 854.7 | –
283.15 K, x2 = 0.7004 | 860.8 | –
283.15 K, x2 = 0.7998 | 866.4 | –
283.15 K, x2 = 0.8982 | 871.5 | –
287.81 K, x2 = 0 | – | 23.94
287.81 K, x2 = 0.1 | – | 24.56
287.81 K, x2 = 0.2002 | – | 25.24
287.81 K, x2 = 0.3002 | – | 25.89
287.81 K, x2 = 0.3997 | – | 26.46
287.81 K, x2 = 0.4973 | – | 27.1
287.81 K, x2 = 0.6011 | – | 27.68
287.81 K, x2 = 0.7004 | – | 28.24
287.81 K, x2 = 0.7998 | – | 28.48
287.81 K, x2 = 0.8982 | – | 28.73
288.15 K, x2 = 0 | 798.2 | –
288.15 K, x2 = 0.1 | 809.8 | –
288.15 K, x2 = 0.2002 | 818.2 | –
288.15 K, x2 = 0.3002 | 826.8 | –
288.15 K, x2 = 0.3997 | 836.1 | –
288.15 K, x2 = 0.4973 | 842.6 | –
288.15 K, x2 = 0.6011 | 849.9 | –
288.15 K, x2 = 0.7004 | 856 | –
288.15 K, x2 = 0.7998 | 861.7 | –
288.15 K, x2 = 0.8982 | 866.9 | –
293.15 K, x2 = 0 | 792.6 | –
293.15 K, x2 = 0.1 | 804.2 | –
293.15 K, x2 = 0.2002 | 812.5 | –
293.15 K, x2 = 0.3002 | 821.4 | –
293.15 K, x2 = 0.3997 | 830.7 | –
293.15 K, x2 = 0.4973 | 837.3 | –
293.15 K, x2 = 0.6011 | 844.6 | –
293.15 K, x2 = 0.7004 | 850.9 | –
293.15 K, x2 = 0.7998 | 856.6 | –
293.15 K, x2 = 0.8982 | 861.9 | –
297.82 K, x2 = 0 | – | 22.78
297.82 K, x2 = 0.1 | – | 23.28
297.82 K, x2 = 0.2002 | – | 23.78
297.82 K, x2 = 0.3002 | – | 24.36
297.82 K, x2 = 0.3997 | – | 24.93
297.82 K, x2 = 0.4973 | – | 25.55
297.82 K, x2 = 0.6011 | – | 26
297.82 K, x2 = 0.7004 | – | 26.5
297.82 K, x2 = 0.7998 | – | 27.1
297.82 K, x2 = 0.8982 | – | 27.33
298.15 K, x2 = 0 | 787 | –
298.15 K, x2 = 0.1 | 798.8 | –
298.15 K, x2 = 0.2002 | 807.1 | –
298.15 K, x2 = 0.3002 | 816.1 | –
298.15 K, x2 = 0.3997 | 825.6 | –
298.15 K, x2 = 0.4973 | 832.3 | –
298.15 K, x2 = 0.6011 | 839.7 | –
298.15 K, x2 = 0.7004 | 846.1 | –
298.15 K, x2 = 0.7998 | 851.9 | –
298.15 K, x2 = 0.8982 | 857.3 | –
303.15 K, x2 = 0 | 781.2 | –
303.15 K, x2 = 0.1 | 793.3 | –
303.15 K, x2 = 0.2002 | 801.6 | –
303.15 K, x2 = 0.3002 | 810.8 | –
303.15 K, x2 = 0.3997 | 820.4 | –
303.15 K, x2 = 0.4973 | 827.2 | –
303.15 K, x2 = 0.6011 | 834.7 | –
303.15 K, x2 = 0.7004 | 841.3 | –
303.15 K, x2 = 0.7998 | 847.2 | –
303.15 K, x2 = 0.8982 | 852.6 | –
307.86 K, x2 = 0 | – | 21.59
307.86 K, x2 = 0.1 | – | 22.08
307.86 K, x2 = 0.2002 | – | 22.58
307.86 K, x2 = 0.3002 | – | 23.1
307.86 K, x2 = 0.3997 | – | 23.77
307.86 K, x2 = 0.4973 | – | 24.4
307.86 K, x2 = 0.6011 | – | 25
307.86 K, x2 = 0.7004 | – | 25.4
307.86 K, x2 = 0.7998 | – | 26
307.86 K, x2 = 0.8982 | – | 26.24
308.15 K, x2 = 0 | 775.4 | –
308.15 K, x2 = 0.1 | 787.7 | –
308.15 K, x2 = 0.3002 | 805.5 | –
308.15 K, x2 = 0.3997 | 815.1 | –
308.15 K, x2 = 0.4973 | 822.1 | –
308.15 K, x2 = 0.6011 | 829.7 | –
308.15 K, x2 = 0.7004 | 836.4 | –
308.15 K, x2 = 0.7998 | 842.4 | –
308.15 K, x2 = 0.8982 | 847.9 | –
313.15 K, x2 = 0 | 769.6 | –
313.15 K, x2 = 0.1 | 782 | –
313.15 K, x2 = 0.2002 | 790.4 | –
313.15 K, x2 = 0.3002 | 800.1 | –
313.15 K, x2 = 0.3997 | 809.7 | –
313.15 K, x2 = 0.4973 | 816.9 | –
313.15 K, x2 = 0.6011 | 824.7 | –
313.15 K, x2 = 0.7004 | 831.4 | –
313.15 K, x2 = 0.7998 | 837.6 | –
313.15 K, x2 = 0.8982 | 843.2 | –
317.86 K, x2 = 0 | – | 20.33
317.86 K, x2 = 0.1 | – | 20.9
317.86 K, x2 = 0.2002 | – | 21.44
317.86 K, x2 = 0.3002 | – | 22.18
317.86 K, x2 = 0.3997 | – | 22.67
317.86 K, x2 = 0.4973 | – | 23.25
317.86 K, x2 = 0.6011 | – | 24.11
317.86 K, x2 = 0.7004 | – | 24.4
317.86 K, x2 = 0.7998 | – | 24.99
317.86 K, x2 = 0.8982 | – | 25.2
318.15 K, x2 = 0 | 762.5 | –
318.15 K, x2 = 0.1 | 776.2 | –
318.15 K, x2 = 0.2002 | 784.6 | –
318.15 K, x2 = 0.3002 | 794.6 | –
318.15 K, x2 = 0.3997 | 804.2 | –
318.15 K, x2 = 0.4973 | 811.6 | –
318.15 K, x2 = 0.6011 | 819.5 | –
318.15 K, x2 = 0.7004 | 826.4 | –
318.15 K, x2 = 0.7998 | 832.7 | –
318.15 K, x2 = 0.8982 | 838.4 | –
323.15 K, x2 = 0 | 756.2 | –
323.15 K, x2 = 0.1 | 770.2 | –
323.15 K, x2 = 0.2002 | 778.9 | –
323.15 K, x2 = 0.3002 | 789.1 | –
323.15 K, x2 = 0.3997 | 798.6 | –
323.15 K, x2 = 0.4973 | 806.3 | –
323.15 K, x2 = 0.6011 | 814.4 | –
323.15 K, x2 = 0.7998 | 827.7 | –
323.15 K, x2 = 0.8982 | 833.6 | –
327.88 K, x2 = 0 | – | 19.01
327.88 K, x2 = 0.1 | – | 19.74
327.88 K, x2 = 0.2002 | – | 20.32
327.88 K, x2 = 0.3002 | – | 21.07
327.88 K, x2 = 0.3997 | – | 21.8
327.88 K, x2 = 0.4973 | – | 22.2
327.88 K, x2 = 0.6011 | – | 22.97
327.88 K, x2 = 0.7004 | – | 23.56
327.88 K, x2 = 0.7998 | – | 23.83
327.88 K, x2 = 0.8982 | – | 24.14
328.15 K, x2 = 0 | 749.3 | –
328.15 K, x2 = 0.1 | 764 | –
328.15 K, x2 = 0.2002 | 773.2 | –
328.15 K, x2 = 0.3002 | 783.5 | –
328.15 K, x2 = 0.3997 | 792.9 | –
328.15 K, x2 = 0.4973 | 801 | –
328.15 K, x2 = 0.6011 | 809.2 | –
328.15 K, x2 = 0.7004 | 816.3 | –
328.15 K, x2 = 0.7998 | 822.8 | –
328.15 K, x2 = 0.8982 | 828.7 | –
333.15 K, x2 = 0 | 742.3 | –
333.15 K, x2 = 0.1 | 757.3 | –
333.15 K, x2 = 0.2002 | 767.5 | –
333.15 K, x2 = 0.3002 | 778.1 | –
333.15 K, x2 = 0.3997 | 787.3 | –
333.15 K, x2 = 0.4973 | 795.6 | –
333.15 K, x2 = 0.6011 | 803.9 | –
333.15 K, x2 = 0.7004 | 811.2 | –
333.15 K, x2 = 0.7998 | 817.8 | –
333.15 K, x2 = 0.8982 | 823.8 | –
